Results taken from patent US20020049167A1, “Azithromycin as a therapeutic agent for infections with leishmania parasites” (priority 2000, published 2002).

How the values were obtained:
Leishmania major = assay: In vitro susceptibility of Leishmania major amastigotes in murine monocyte-derived bone marrow macrophages (Giemsa counting); assay type: cell-based; conditions: for multiplication index: analysis of variance; for percentage of macrophages infected: by day five; for number of amastigotes found in infected cells: day five
Description: Monocyte-derived bone marrow macrophages from C57B1/6 naïve mice. These cells were harvested from the femoral bones and incubated for 7 days at 37° C. in 5% CO2 in complete tissue culture medium [DMEM, 20% heat inactivated fetal calf serum, 1% Penicillin/streptomycin, 1% glutamine, 1% pyruvate, 30% L-cell line supernatant]. After 7 days, 50×10^6 macrophages per mouse donor were recovered from the cultures. The cells were then washed and 1×10^6 macrophages were added to the wells (16 mm diameter) of a 24 well plate at the bottom of which was placed a round glass cover slip. The macrophages were added to the wells in 300 μl of culture medium consisting of RPMI 1640,10% heat inactivated fetal calf serum, 1% Penicillin/streptomycin, 1% glutamine, 2.5% BEPES, and 0.1% 2-mercaptoethanol.
Cryopreserved amastigotes of Leishmania major (Friedlin strain), originally obtained from footpad lesions of SCID mice, were thawed, washed with medium and counted in a hemocytometer, then re-suspended in complete medium and added to the wells at a concentration of 1 million per well (amastigote/macrophage ratio 1:1) in 50 μl of complete medium. The total volume of media in each well was […].
Amphotericin B (Fungizone, Gibco) was reconstituted from a lyophilized form and azithromycin (Zithromax, Pfizer) was prepared from a 500 mg-powder vial for IV use; both antibiotics were reconstituted in sterile water and diluted in complete medium to the desired concentration. Amphotericin B was used at a concentration of 1 mg/ml and azithromycin at concentrations of 0.1, 0.6, 3 and 15 μg/ml.
After mixing the macrophages with the amastigotes, the plates were incubated for 3 hrs. at 37° C. in 5% Co2; at that point the plates were washed with PBS to eliminate non-adherent macrophages and free amastigotes. Medium with or without antibiotics was added to the wells at a final volume of 3 ml. Some of the cultures were removed from the wells at this point and placed in petri dishes containing 50 mls of medium with antibiotics. Amphotericin B was used as a positive control group in all the experiments. The cultures were maintained at 37° C. in 5% CO2 and culture media and antibiotics were changed daily.
Before adding antibiotics on day 0 and on days 3 and 5, cover slips were recovered from the wells and petri dishes, immediately fixed and stained with Giemsa for counting, which was performed using 1000X magnification with immersion oil. All the experiments were carried out in duplicate.
Two cover slips were recovered from each time point and the data obtained for each slide was as follows: 200 to 300 macrophages were counted, number of infected macrophages per 100 macrophages and number of amastigotes per 100 macrophages was determined. The results reported are the mean values of those two parasite counts. Experiments were repeated a minimum of two times.

macrophages = conditions: levels versus that obtained in the serum (Gladue et al. 1989); cited from earlier work
[1] = amphotericin B at 1 mg/ml, Day 0 (before adding antibiotics)
[2] = amphotericin B at 1 mg/ml, Day 3
[3] = amphotericin B at 1 mg/ml, Day 5
[4] = 0.1 μg/ml azithromycin, Day 0 (before adding antibiotics)
[5] = 0.6 μg azithromycin, volume 3 ml, five days
[6] = 0.6 μg/ml azithromycin, Day 0 (before adding antibiotics)
[7] = 3.0 μg azithromycin, volume 3 ml, five days
[8] = 3.0 μg/ml azithromycin, Day 0 (before adding antibiotics)
[9] = 15 μg/ml azithromycin, Day 0 (before adding antibiotics)

Compound: C[C@@H]1[C@H](O)[C@@H](C)/C=C/C=C/C=C/C=C/C=C/C=C/C=C/[C@H](O[C@@H]2O[C@H](C)[C@@H](O)[C@H](N)[C@@H]2O)C[C@@H]2O[C@](O)(C[C@@H](O)C[C@@H](O)[C@H](O)CC[C@@H](O)C[C@@H](O)CC(=O)O[C@H]1C)C[C@H](O)[C@H]2C(=O)O [Amphotericin B]
- multiplication index (Leishmania major; 1 mg/ml of amphotericin B): significant reduction
- Number of Amastigotes/100 macrophages (Leishmania major; [1]): 27 /100 macrophages
- Percent Infected Macrophages (Leishmania major; [1]): 16%
- Number of Amastigotes/100 macrophages (Leishmania major; [2]): 1 /100 macrophages
- Percent Infected Macrophages (Leishmania major; [2]): 1%
- Number of Amastigotes/100 macrophages (Leishmania major; [3]): 0 /100 macrophages
- Percent Infected Macrophages (Leishmania major; [3]): 0%
- percentage of macrophages infected (Leishmania major; 1 mg/ml of amphotericin B): significant decrease
- number of amastigotes found in infected cells (Leishmania major; 1 mg/ml of amphotericin B): significant decrease

Compound: CC[C@H]1OC(=O)[C@H](C)[C@@H](O[C@H]2C[C@@](C)(OC)[C@@H](O)[C@H](C)O2)[C@H](C)[C@@H](O[C@@H]2O[C@H](C)C[C@H](N(C)C)[C@H]2O)[C@](C)(O)C[C@@H](C)CN(C)[C@H](C)[C@@H](O)[C@]1(C)O [azithromycin]
- drug accumulation in the tissue cells, especially in macrophages, relative to serum (macrophages): 110 times
- Number of Amastigotes/100 macrophages (Leishmania major; [4]): 27 /100 macrophages
- Percent Infected Macrophages (Leishmania major; [4]): 16%
- Number of Amastigotes/100 macrophages (Leishmania major; 0.1 μg/ml azithromycin, Day 3): 10 /100 macrophages
- Percent Infected Macrophages (Leishmania major; 0.1 μg/ml azithromycin, Day 3): 8%
- Number of Amastigotes/100 macrophages (Leishmania major; 0.1 μg/ml azithromycin, Day 5): 38 /100 macrophages
- Percent Infected Macrophages (Leishmania major; 0.1 μg/ml azithromycin, Day 5): 24%
- Number of Amastigotes/100 macrophages (Leishmania major; 0.6 μg azithromycin, five days): 11 /100 macrophages
- Number of Amastigotes/100 macrophages (Leishmania major; [5]): 23 /100 macrophages
- Percent Infected Macrophages (Leishmania major; [5]): 17%
- Percent Infected Macrophages (Leishmania major; 0.6 μg azithromycin, volume 50 ml, five days): 10%
- Number of Amastigotes/100 macrophages (Leishmania major; [6]): 27 /100 macrophages
- Percent Infected Macrophages (Leishmania major; [6]): 16%
- Number of Amastigotes/100 macrophages (Leishmania major; 0.6 μg/ml azithromycin, Day 3): 14 /100 macrophages
- Percent Infected Macrophages (Leishmania major; 0.6 μg/ml azithromycin, Day 3): 28%
- Number of Amastigotes/100 macrophages (Leishmania major; 0.6 μg/ml azithromycin, Day 5): 11 /100 macrophages
- Percent Infected Macrophages (Leishmania major; 0.6 μg/ml azithromycin, Day 5): 17%
- Number of Amastigotes/100 macrophages (Leishmania major; 3.0 μg azithromycin, five days): 13 /100 macrophages
- Number of Amastigotes/100 macrophages (Leishmania major; [7]): 11 /100 macrophages
- Percent Infected Macrophages (Leishmania major; [7]): 9%
- Percent Infected Macrophages (Leishmania major; 3.0 μg azithromycin, volume 50 ml, five days): 11%
- Number of Amastigotes/100 macrophages (Leishmania major; [8]): 27 /100 macrophages
- Percent Infected Macrophages (Leishmania major; [8]): 16%
- Number of Amastigotes/100 macrophages (Leishmania major; 3.0 μg/ml azithromycin, Day 3): 45 /100 macrophages
- Percent Infected Macrophages (Leishmania major; 3.0 μg/ml azithromycin, Day 3): 31%
- Number of Amastigotes/100 macrophages (Leishmania major; 3.0 μg/ml azithromycin, Day 5): 13 /100 macrophages
- Percent Infected Macrophages (Leishmania major; 3.0 μg/ml azithromycin, Day 5): 9%
- Number of Amastigotes/100 macrophages (Leishmania major; [9]): 27 /100 macrophages
- Percent Infected Macrophages (Leishmania major; [9]): 16%
- Number of Amastigotes/100 macrophages (Leishmania major; 15 μg/ml azithromycin, Day 3): 13 /100 macrophages
- Percent Infected Macrophages (Leishmania major; 15 μg/ml azithromycin, Day 3): 10%
- Number of Amastigotes/100 macrophages (Leishmania major; 15 μg/ml azithromycin, Day 5): 12 /100 macrophages
- Percent Infected Macrophages (Leishmania major; 15 μg/ml azithromycin, Day 5): 9%
- multiplication index (Leishmania major; 0.6-15 μg/ml of azithromycin): significant reduction
- ability to limit the replication of L. major (multiplication index) compared with 1 mg/ml of amphotericin B (Leishmania major; 3 and 15 μg/ml of azithromycin): statistically equal
- 50% effective dose (ED50) (Leishmania major; L. major in murine macrophages in vitro): < 0.6 µg/mL
- percentage of macrophages infected (Leishmania major; 0.6-15 μg/ml of azithromycin): significant decrease
- number of amastigotes found in infected cells (Leishmania major; 3.0-15 μg/ml of azithromycin): significant decrease
